Paper PMC12567349, “Design and Optimization of Spiro-Isatin-Thiazolidinone Hybrids with Promising Anticancer Activity” (Pharmaceuticals, 2025)

Assays:
NIH3T3 cells = test: MTT assay, 72 h, NIH3T3 (pseudo-normal); format: cell-based; conditions: Mus musculus, mean ± SD
Experimental: (§1) The cytotoxic potential of the synthesized compounds was investigated using the MTT assay after 72 h incubation with a panel of human and murine cancer cell lines, including colorectal carcinoma (HCT116), estrogen receptor-positive breast adenocarcinoma (MCF-7), triple-negative breast adenocarcinoma (MDA-MB-231), epidermoid carcinoma (KB3-1), myeloid leukemia (K562), and glioblastoma (U373), and mouse breast carcinoma (4T1) cells. To assess the selectivity of the compounds, pseudo-normal cell lines—human keratinocytes (HaCaTs) and mouse fibroblasts (NIH3T3s)—were also tested under the same conditions.
(§2) Human breast adenocarcinoma cells of MCF-7 and MDA-MB-231 lines, human glioblastoma cells of U373 line, human chronic myelogenous leukemia cells of K562 line, human colorectal carcinoma cells of HCT116 line, and human epidermoid carcinoma cells of KB3-1 line were kindly donated by a Collection of the Institute for Cancer Research at Vienna Medical University (Vienna, Austria). Human keratinocytes of HaCaT line, murine breast carcinoma cells of 4T1 line, and murine fibroblasts of the NIH3T3 line were obtained from the Cell Collection of the R.E. Kavetsky Institute of Experimental Pathology, Oncology and Radiobiology of the National Academy of Sciences of Ukraine (Kyiv, Ukraine). MCF-7, MDA-MB-231, U373, K562, HaCaT, and NIH3T3 cells were cultured in DMEM medium (Sigma-Aldrich, Burlington, MA, USA) supplemented with 2 mM L-glutamine, 4500 mg/L glucose, and 1 mM sodium pyruvate. HCT116 and KB3-1 cells were maintained in RPMI-1640 medium supplemented with 2 mM L-glutamine (Sigma-Aldrich, USA). Both media were supplemented with 10% fetal bovine serum (Sigma-Aldrich, USA). All cell lines were incubated at 37 °C in a humidified atmosphere containing 5% CO2.
(§3) The substrate cells were seeded at a density of 5000 cells per 100 µL, while suspension K562 cells were seeded at 15,000 cells per 100 µL in 96-well plates and incubated overnight. Doxorubicin (Dox, Sigma-Aldrich, USA) was used as a reference drug. Studied substances were then added in 100 µL of culture medium, and the cells were further incubated for 72 h. Subsequently, 20 µL of MTT solution (5 mg/mL, Sigma-Aldrich, USA) was added to each well and incubated for 2–4 h. Formazan crystals were then solubilized by adding dimethyl sulfoxide (Sigma-Aldrich, USA). Absorbance was measured using a BioTek ELx800 Absorbance Reader (BioTek Instruments, Inc., Winooski, VT, USA). The results were analyzed and illustrated using GraphPad Prism (version 8.0.1; GraphPad Software, San Diego, CA, USA) and presented as a mean (M) ± standard deviation (SD). The IC50 values of the compounds were determined using nonlinear regression analysis in GraphPad Prism 10.4.2 [40].

K562 cells = test: MTT assay, 72 h, K562; format: cell-based; conditions: Homo sapiens, mean ± SD
Experimental: as §1, §2, §3

MCF-7 cells = test: MTT assay, 72 h, MCF-7; format: cell-based; conditions: Homo sapiens, MCF7, mean ± SD
Experimental: as §1, §2
as §3, with “Doxorubicin (Dox, Sigma-Aldrich, USA) was used as a reference drug.” left out

U373 cells = test: MTT assay, 72 h, U373; format: cell-based; conditions: Homo sapiens, U373 MG, mean ± SD
Experimental: as §1, §2, §3

HCT116 cells = test: MTT assay, 72 h, HCT116; format: cell-based; conditions: Homo sapiens, HCT-116, mean ± SD
Experimental: as §1, §2, §3

cancer cell lines = test: MTT assay, panel of cancer cell lines; format: cell-based; conditions: 72 h, summary over the cancer cell panel, read-out: IC50 for most cancer lines
Experimental: as §1, §3

KB3-1 cells = test: MTT assay, 72 h, KB3-1; format: cell-based; conditions: Homo sapiens, KB 3-1, mean ± SD
Experimental: as §1, §2, §3

MDA-MB-231 cells = test: MTT assay, 72 h, MDA-MB-231; format: cell-based; conditions: Homo sapiens, mean ± SD
Experimental: as §1, §2, §3

HaCaT cells = test: MTT assay, 72 h, HaCaT (pseudo-normal); format: cell-based; conditions: Homo sapiens, mean ± SD
Experimental: as §1, §2, §3

4T1 cells = test: MTT assay, 72 h, 4T1; format: cell-based; conditions: Mus musculus, mean ± SD
Experimental: as §1, §2, §3

[1] = system: p53 expression in A549 lung cancer cells; set-up: method as in PMID 38920636; conditions: A549 lung cancer cells ref 34; cited from earlier work
[2] = system: p53 expression in normal BJ cells; set-up: method as in PMID 38920636; conditions: normal BJ cells ref 34; cited from earlier work
PPARγ = system: PPARγ; set-up: method as in PMID 38920636; conditions: cited from earlier work

**Q.** For `COc1ccc(N2C(=O)/C(=C/c3ccc(N4CCOCC4)cc3)SC23C(=O)Nc2ccc(Cl)cc23)cc1` (stereo not drawn) [Compound 8, (Z)-5-Chloro-3′-(4-methoxyphenyl)-5′-(4-morpholinobenzylidene)spiro[indoline-3,2′-thiazolidine]-2,4′-dione], which IC50 (NIH3T3 cells) is on record?
**A.** > 100 µM

**Q.** What about the IC50 (K562 cells) of the same compound?
**A.** > 100 µM

**Q.** What about the IC50 (MCF-7 cells) of the same compound?
**A.** > 100 µM

**Q.** And the IC50 (U373 cells)?
**A.** > 100 µM

**Q.** What about the IC50 (HCT116 cells) of the same compound?
**A.** > 100 µM

**Q.** And the IC50 (cancer cell lines)?
**A.** > 100 µM

**Q.** And the IC50 (KB3-1 cells)?
**A.** 75.9 ± 4.21 µM

**Q.** And the IC50 (MDA-MB-231 cells)?
**A.** > 100 µM

**Q.** And the IC50 (HaCaT cells)?
**A.** > 100 µM

**Q.** And the IC50 (4T1 cells)?
**A.** > 100 µM

**Q.** What does the source list for `CCOc1ccc(/C=C2\SC3(C(=O)Nc4ccc(Br)cc43)N(c3ccc(Br)cc3)C2=O)cc1` (stereo not drawn) [Compound 14, (Z)-5-Bromo-3′-(4-bromophenyl)-5′-(4-ethoxybenzylidene)spiro[indoline-3,2′-thiazolidine]-2,4′-dione]?
**A.** IC50 (NIH3T3 cells): > 100 µM; IC50 (K562 cells): > 100 µM; IC50 (MCF-7 cells): > 100 µM; IC50 (U373 cells): 89.52 ± 0.81 µM; IC50 (HCT116 cells): > 100 µM; IC50 (cancer cell lines): > 100 µM; IC50 (KB3-1 cells): 19.6 ± 0.23 µM; IC50 (MDA-MB-231 cells): 60.2 ± 0.62 µM; IC50 (HaCaT cells): > 100 µM; IC50 (4T1 cells): > 100 µM

**Q.** Which IC50 (NIH3T3 cells) does the source give for `CC(C)(C)c1ccc(/C=C2\SC3(C(=O)Nc4ccc(Cl)cc43)N(Cc3ccccc3)C2=O)cc1` (stereo not drawn) [Compound 17, (Z)-3′-Benzyl-5′-(4-(tert-butyl)benzylidene)-5-chlorospiro[indoline-3,2′-thiazolidine]-2,4′-dione] here?
**A.** 91 ± 1.34 µM

**Q.** And the IC50 (K562 cells)?
**A.** 67.9 ± 0.81 µM

**Q.** And the IC50 (MCF-7 cells)?
**A.** 6.64 ± 0.39 µM

**Q.** What about the IC50 (U373 cells) of the same compound?
**A.** 32.26 ± 0.25 µM

**Q.** What about the IC50 (HCT116 cells) of the same compound?
**A.** 8.24 ± 0.26 µM

**Q.** What about the IC50 (KB3-1 cells) of the same compound?
**A.** 5.85 ± 0.42 µM

**Q.** And the IC50 (MDA-MB-231 cells)?
**A.** 13.5 ± 2.21 µM

**Q.** And the IC50 (HaCaT cells)?
**A.** 10.6 ± 0.21 µM

**Q.** What about the IC50 (4T1 cells) of the same compound?
**A.** 66 ± 4.48 µM

**Q.** Which results are given for `CC(C)(C)c1ccc(/C=C2\SC3(C(=O)Nc4ccc(F)cc43)N(Cc3ccccc3)C2=O)cc1` (stereo not drawn) [Compound 18, (Z)-3′-Benzyl-5′-(4-(tert-butyl)benzylidene)-5-fluorospiro[indoline-3,2′-thiazolidine]-2,4′-dione]?
**A.** IC50 (NIH3T3 cells): 98.39 ± 0.66 µM; IC50 (K562 cells): 37.4 ± 0.49 µM; IC50 (MCF-7 cells): 6.99 ± 0.16 µM; IC50 (U373 cells): 29.8 ± 0.35 µM; IC50 (HCT116 cells): 8.37 ± 0.51 µM; IC50 (cancer cell lines): 6.67 to 8.37 µM; IC50 (KB3-1 cells): 7.92 ± 0.65 µM; IC50 (MDA-MB-231 cells): 6.67 ± 0.15 µM; IC50 (HaCaT cells): > 100 µM; IC50 (4T1 cells): 46.7 ± 1.19 µM

**Q.** For `CCOc1ccc(/C=C2\SC3(C(=O)Nc4ccc(F)cc43)N(Cc3ccccc3)C2=O)cc1` (stereo not drawn) [Compound 19, (Z)-3′-Benzyl-5′-(4-ethoxybenzylidene)-5-fluorospiro[indoline-3,2′-thiazolidine]-2,4′-dione], which IC50 (NIH3T3 cells) is on record?
**A.** 94.35 ± 0.87 µM

**Q.** What about the IC50 (K562 cells) of the same compound?
**A.** > 100 µM

**Q.** And the IC50 (MCF-7 cells)?
**A.** 63.9 ± 0.59 µM

**Q.** And the IC50 (U373 cells)?
**A.** 54.89 ± 0.33 µM

**Q.** And the IC50 (HCT116 cells)?
**A.** 62.7 ± 0.76 µM

**Q.** What about the IC50 (KB3-1 cells) of the same compound?
**A.** 35 ± 0.48 µM

**Q.** And the IC50 (MDA-MB-231 cells)?
**A.** 59.3 ± 2.27 µM

**Q.** What about the IC50 (HaCaT cells) of the same compound?
**A.** 96.79 ± 0.78 µM

**Q.** And the IC50 (4T1 cells)?
**A.** 60.5 ± 1.84 µM

**Q.** Which p53 expression [1] does the source give for `CC(C)c1ccc(/C=C2\SC3(C(=O)Nc4ccccc43)N(c3ccc(Cl)cc3)C2=O)cc1` (stereo not drawn) [Les-3467] here?
**A.** decreasing it

**Q.** What about the p53 expression [2] of the same compound?
**A.** increasing its levels

**Q.** What about the PPARγ modulation (PPARγ) of the same compound?
**A.** acts as a PPARγ modulator
